Experimental data reported in patent US20120238549A1, “Nuclear Hormone Receptor Modulators” (ABBOTT LABORATORIES, priority 2011, published 2012).

Target: T1, Glucocorticoid Receptor (GR) (Homo sapiens, UniProt P04150)
T1 construct: purchased Invitrogen P2893
T1 sequence (P04150 1-777): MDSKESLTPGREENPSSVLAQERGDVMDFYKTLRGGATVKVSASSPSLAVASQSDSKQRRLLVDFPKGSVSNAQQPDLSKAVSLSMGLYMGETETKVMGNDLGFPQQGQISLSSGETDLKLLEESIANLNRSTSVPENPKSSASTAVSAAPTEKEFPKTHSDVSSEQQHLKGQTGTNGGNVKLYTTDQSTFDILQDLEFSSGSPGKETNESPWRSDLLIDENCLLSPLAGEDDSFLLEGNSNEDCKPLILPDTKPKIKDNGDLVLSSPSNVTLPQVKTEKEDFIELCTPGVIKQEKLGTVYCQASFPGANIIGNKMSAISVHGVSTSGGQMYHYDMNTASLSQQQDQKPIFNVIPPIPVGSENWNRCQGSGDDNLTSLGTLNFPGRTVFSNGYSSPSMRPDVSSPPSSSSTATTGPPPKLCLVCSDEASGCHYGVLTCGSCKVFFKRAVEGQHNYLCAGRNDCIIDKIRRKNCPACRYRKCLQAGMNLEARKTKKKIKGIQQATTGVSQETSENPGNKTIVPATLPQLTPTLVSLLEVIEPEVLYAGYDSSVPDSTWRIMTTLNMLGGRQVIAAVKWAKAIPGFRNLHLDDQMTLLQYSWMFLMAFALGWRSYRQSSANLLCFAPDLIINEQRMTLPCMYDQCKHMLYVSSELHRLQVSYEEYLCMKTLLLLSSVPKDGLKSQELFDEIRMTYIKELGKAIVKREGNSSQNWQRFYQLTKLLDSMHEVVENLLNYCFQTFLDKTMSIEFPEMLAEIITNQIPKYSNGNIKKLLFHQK
Test: GR Florescence Polarization Assay (PolarScreen Glucocorticoid Receptor Competitor Assay, Red)
Conditions: Fluorescense polarization binding ranges; competition with fluorescent glucocorticoid, incubated overnight at 4° C.
Method in brief: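 Competitive fluorescence polarization using fluorescent glucocorticoid tracer and human GR in kit buffer. Compounds serially diluted 1:4 in DMSO, incubated with tracer and GR overnight at 4 °C before polarization read.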

Question: How did the IC50 turn out when `CCC[C@@]1(O)CC[C@@]2(CC)c3ccc(C(=O)Nc4cccnc4C)cc3CCC[C@H]2C1` (single isomer, unassigned) [Example 45] was run?
Answer: < 100 nM

Question: `CC[C@]12CC[C@](C)(O)C[C@H]1CCCc1cc(C(=O)Nc3cccnc3C)ccc12` (single isomer, unassigned) [Example 59] was tested. Which IC50 did it give?
Answer: 1000 to 10000 nM

Question: With `CC[C@@]12CC[C@@](C)(O)C[C@@H]1CCCc1cc(C(=O)Nc3cccnc3C)ccc12` (single isomer, unassigned) [Example 60] as the compound, how does the IC50 read?
Answer: < 100 nM

Question: With `CCC[C@@]1(O)CC[C@@]2(CC)c3ccc(C(=O)Nc4cccnc4C)cc3C(=O)CC[C@H]2C1` (single isomer, unassigned) [Example 61] as the compound, how does the IC50 read?
Answer: 100 to 1000 nM

Question: How did the IC50 turn out when `CCC[C@]1(O)CC[C@]2(CC)c3ccc(C(=O)Nc4cccnc4C)cc3C(=O)CC[C@@H]2C1` (single isomer, unassigned) [Example 62] was run?
Answer: < 100 nM

Question: How did the IC50 turn out when `Cc1ncccc1NC(=O)c1ccc2c(c1)CCC[C@@H]1C[C@](C)(O)CC[C@@]21Cc1ccccc1` (single isomer, unassigned) [Example 90] was run?
Answer: < 100 nM

Question: How did the IC50 turn out when `CCC[C@]1(O)CC[C@]2(CC)c3ccc(C(=O)Nc4cccnc4C)cc3OCC[C@@H]2C1` (single isomer, unassigned) [Example 120] was run?
Answer: 100 to 1000 nM

Question: `CCC[C@@]1(O)CC[C@@]2(CC)c3ccc(C(=O)Nc4cccnc4C)cc3OCC[C@H]2C1` (single isomer, unassigned) [Example 121] was tested. Which IC50 did it give?
Answer: < 100 nM

Question: With `CC[C@@]12CC[C@](O)(c3ccccc3)C[C@@H]1CCCc1cc(C(=O)Nc3cccnc3C)ccc12` (single isomer, unassigned) [Example 122] as the compound, how does the IC50 read?
Answer: < 100 nM

Question: For `CC[C@]12CC[C@@](O)(c3ccccc3)C[C@H]1CCCc1cc(C(=O)Nc3cccnc3C)ccc12` (single isomer, unassigned) [Example 123], which IC50 is on record?
Answer: 100 to 1000 nM

Question: Which IC50 does the source give for `CC[C@@]12C[C@@H](O)[C@](O)(c3ccccc3)C[C@@H]1CCCc1cc(C(=O)Nc3cccnc3C)ccc12` (single isomer, unassigned) [Example 124] here?
Answer: 1000 to 10000 nM

Question: How did the IC50 turn out when `CC[C@]12C[C@H](O)[C@@](O)(c3ccccc3)C[C@H]1CCCc1cc(C(=O)Nc3cccnc3C)ccc12` (single isomer, unassigned) [Example 125] was run?
Answer: < 100 nM

Question: `CCC[C@@]1(O)CC[C@@]2(CC)c3ccc(C(=O)Nc4cccnc4C)cc3C=CC[C@H]2C1` (single isomer, unassigned) [Example 129] was tested. Which IC50 did it give?
Answer: 100 to 1000 nM

Question: With `CCC[C@]1(O)CC[C@]2(CC)c3ccc(C(=O)Nc4cccnc4C)cc3C=CC[C@@H]2C1` (single isomer, unassigned) [Example 130] as the compound, how does the IC50 read?
Answer: < 100 nM

Question: How did the IC50 turn out when `CCC[C@]1(O)CC[C@]2(CC)c3ccc(C(=O)Nc4cccnc4C)cc3COC[C@@H]2C1` (single isomer, unassigned) [Example 137] was run?
Answer: 1000 to 10000 nM

Question: `CCC[C@@]1(O)CC[C@@]2(CC)c3ccc(C(=O)Nc4cccnc4C)cc3COC[C@H]2C1` (single isomer, unassigned) [Example 138] was tested. Which IC50 did it give?
Answer: < 100 nM

Question: How did the IC50 turn out when `CCC[C@@]1(O)CC[C@@]2(CC)c3ccc(-c4nc5ccccc5[nH]4)cc3CCC[C@H]2C1` (single isomer, unassigned) [Example 147] was run?
Answer: 1000 to 10000 nM

Question: For `CCC[C@]1(O)CC[C@]2(CC)c3ccc(-c4nc5ccccc5[nH]4)cc3CCC[C@@H]2C1` (single isomer, unassigned) [Example 148], which IC50 is on record?
Answer: 1000 to 10000 nM

Question: How did the IC50 turn out when `Cc1ncccc1NC(=O)c1ccc2c(c1)CCC[C@H]1CC(C)(O)CC[C@]21Cc1ccccc1` (stereo in doubt) [Example 91, (7aS,9R,11aR)-11a-benzyl-9-hydroxy-9-methyl-6,7,7a,8,9,10,11,11a-octahydro-5H-dibenzo[a,c]cycloheptene-3-carboxylic acid (2-methyl-pyridin-3-yl)-amide] was run?
Answer: 100 to 1000 nM

Question: With `COc1ccc2c(c1)CCCC1=CC(=O)CCC12Cc1ccccc1` (centres unmarked) [Example 1, 11b-Benzyl-9-methoxy-1,2,5,6,7,11b-hexahydro-dibenzo[a,c]cyclohepten-3-one] as the compound, how does the IC50 read?
Answer: 100 to 1000 nM

Question: How did the IC50 turn out when `O=C1C=C2CCCc3cc(O)ccc3C2(Cc2ccccc2)CC1` (centres unmarked) [Example 2, 11b-Benzyl-9-hydroxy-1,2,5,6,7,11b-hexahydro-dibenzo[a,c]cyclohepten-3-one] was run?
Answer: 100 to 1000 nM

Question: With `O=C1CC[C@@]2(Cc3ccccc3)c3ccc(O)cc3CCC[C@H]2C1.O=C1CC[C@]2(Cc3ccccc3)c3ccc(O)cc3CCC[C@@H]2C1` [Example 4, (4aS,11bS)-11b-Benzyl-9-hydroxy-1,2,4,4a,5,6,7,11b-octahydro-dibenzo[a,c]cyclohepten-3-one; compound with (4aR,11bR)-11b-benzyl-9-hydroxy-1,2,4,4a,5,6,7,11b-octahydro-dibenzo[a,c]cyclohepten-3-one] as the compound, how does the IC50 read?
Answer: 100 to 1000 nM

Question: How did the IC50 turn out when `O=C1CC[C@@]2(Cc3ccccc3)c3ccc(O)cc3CCC[C@@H]2C1.O=C1CC[C@]2(Cc3ccccc3)c3ccc(O)cc3CCC[C@H]2C1` [Example 5, (4aR,11bS)-11b-benzyl-9-hydroxy-1,2,4,4a,5,6,7,11b-octahydro-dibenzo[a,c]cyclohepten-3-one; compound with (4aS,11bR)-11b-benzyl-9-hydroxy-1,2,4,4a,5,6,7,11b-octahydro-dibenzo[a,c]cyclohepten-3-one] was run?
Answer: 100 to 1000 nM

Question: With `Cc1ncccc1NC(=O)c1ccc2c(c1)CCC[C@@H]1C[C@](C)(O)CC[C@@]21Cc1ccccc1.Cc1ncccc1NC(=O)c1ccc2c(c1)CCC[C@H]1C[C@@](C)(O)CC[C@]21Cc1ccccc1` [Example 9, (7aR,9R,11aS)-11a-Benzyl-9-hydroxy-9-methyl-6,7,7a,8,9,10,11,11a-octahydro-5H-dibenzo[a,c]cycloheptene-3-carboxylic acid (2-methyl-pyridin-3-yl)-amide; compound with (7aS,9S,11aR)-11a-benzyl-9-hydroxy-9-methyl-6,7,7a,8,9,10,11,11a-octahydro-5H-dibenzo[a,c]cycloheptene-3-carboxylic acid (2-methyl-pyridin-3-yl)-amide] as the compound, how does the IC50 read?
Answer: < 100 nM

Question: With `Cc1ncccc1NC(=O)c1ccc2c(c1)CCC[C@@H]1C[C@@](C)(O)CC[C@@]21Cc1ccccc1.Cc1ncccc1NC(=O)c1ccc2c(c1)CCC[C@H]1C[C@](C)(O)CC[C@]21Cc1ccccc1` [Example 10, (7aR,9S,11aS)-11a-benzyl-9-hydroxy-9-methyl-6,7,7a,8,9,10,11,11a-octahydro-5H-dibenzo[a,c]cycloheptene-3-carboxylic acid (2-methyl-pyridin-3-yl)-amide; compound with (7aS,9R,11aR)-11a-benzyl-9-hydroxy-9-methyl-6,7,7a,8,9,10,11,11a-octahydro-5H-dibenzo[a,c]cycloheptene-3-carboxylic acid (2-methyl-pyridin-3-yl)-amide] as the compound, how does the IC50 read?
Answer: < 100 nM

Question: With `CC[C@@]1(O)CC[C@@]2(Cc3ccccc3)c3ccc(C(=O)Nc4cccnc4C)cc3CCC[C@H]2C1.CC[C@]1(O)CC[C@]2(Cc3ccccc3)c3ccc(C(=O)Nc4cccnc4C)cc3CCC[C@@H]2C1` [Example 12, (7aS,9R,11aS)-11a-Benzyl-9-ethyl-9-hydroxy-6,7,7a,8,9,10,11,11a-octahydro-5H-dibenzo[a,c]cycloheptene-3-carboxylic acid (2-methyl-pyridin-3-yl)-amide; compound with (7aR,9S,11aR)-11a-benzyl-9-ethyl-9-hydroxy-6,7,7a,8,9,10,11,11a-octahydro-5H-dibenzo[a,c]cycloheptene-3-carboxylic acid (2-methyl-pyridin-3-yl)-amide] as the compound, how does the IC50 read?
Answer: < 100 nM

Question: For `CC[C@@]1(O)CC[C@]2(Cc3ccccc3)c3ccc(C(=O)Nc4cccnc4C)cc3CCC[C@@H]2C1.CC[C@]1(O)CC[C@@]2(Cc3ccccc3)c3ccc(C(=O)Nc4cccnc4C)cc3CCC[C@H]2C1` [Example 13, (7aS,9S,11aS)-11a-benzyl-9-ethyl-9-hydroxy-6,7,7a,8,9,10,11,11a-octahydro-5H-dibenzo[a,c]cycloheptene-3-carboxylic acid (2-methyl-pyridin-3-yl)-amide; compound with (7aR,9R,11aR)-11a-benzyl-9-ethyl-9-hydroxy-6,7,7a,8,9,10,11,11a-octahydro-5H-dibenzo[a,c]cycloheptene-3-carboxylic acid (2-methyl-pyridin-3-yl)-amide], which IC50 is on record?
Answer: 100 to 1000 nM

Question: Which IC50 does the source give for `Cc1ncccc1NC(=O)c1ccc2c(c1)NC(=O)C[C@@H]1C[C@@](O)(C(F)(F)F)CC[C@@]21Cc1ccccc1` [Example 20, (7aS,9R,11aS)-11a-Benzyl-9-hydroxy-N-(2-methylpyridin-3-yl)-6-oxo-9-(trifluoromethyl)-6,7,7a,8,9,10,11,11a-octahydro-5H-dibenzo[b,d]azepine-3-carboxamide] here?
Answer: 100 to 1000 nM

Question: With `Cc1ncccc1NC(=O)c1ccc2c(c1)NC(=O)C[C@H]1CC(O)(C(F)(F)F)CC[C@@]21Cc1ccccc1` (stereo partly drawn) [Example 21, (7aR,11aS)-11a-Benzyl-9-hydroxy-N-(2-methylpyridin-3-yl)-6-oxo-9-(trifluoromethyl)-6,7,7a,8,9,10,11,11a-octahydro-5H-dibenzo[b,d]azepine-3-carboxamide] as the compound, how does the IC50 read?
Answer: > 10000 nM
